The source of these data is PMC12400318 (Biochemical Journal, 2025).

The target of series [1] is T1, T. melanesiensis CtfAB (T. mel CtfAB; WT-CtfAB) (Thermosipho melanesiensis, UniProt A6LM39+A6LM40).
T1 sequence (A6LM40 1-217): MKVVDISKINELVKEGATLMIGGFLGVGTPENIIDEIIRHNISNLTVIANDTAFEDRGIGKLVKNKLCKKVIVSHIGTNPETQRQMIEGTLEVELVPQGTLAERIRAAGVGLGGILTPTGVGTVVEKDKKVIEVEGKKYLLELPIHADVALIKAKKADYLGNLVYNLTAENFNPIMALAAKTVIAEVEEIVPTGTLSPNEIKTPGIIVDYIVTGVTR
T1 sequence (A6LM39 1-214): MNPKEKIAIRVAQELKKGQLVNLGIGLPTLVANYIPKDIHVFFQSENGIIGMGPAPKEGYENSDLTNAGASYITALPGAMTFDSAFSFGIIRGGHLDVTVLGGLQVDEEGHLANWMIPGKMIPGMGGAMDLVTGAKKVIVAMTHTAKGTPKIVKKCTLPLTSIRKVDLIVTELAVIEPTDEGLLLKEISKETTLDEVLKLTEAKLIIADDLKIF
Description: acetoacetyl-CoA Mg-enolate consumption at […] nm; global ping-pong bi-bi fit with inhibition. The arrangement: gene Tmel_1136; co-expressed in E. coli Rosetta 2(DE3)pLysS; N-terminal 6xHis on CtfA, untagged CtfB; subunits Mr 23-25 kDa; heterotetramer (two CtfA-CtfB heterodimers) in crystals. The format is biochemical. To be noted: read-out: Ki,Q.

Series [2] addresses T2, T. melanesiensis CtfAB (T. mel CtfAB; WT-CtfAB) (Thermosipho melanesiensis, UniProt A6LM39+A6LM40, A6LM39:F42T/A6LM39:S45C).
T2 construct: gene Tmel_1136; co-expressed in E. coli Rosetta 2(DE3)pLysS; N-terminal 6xHis on CtfA, untagged CtfB; subunits Mr 23-25 kDa; heterotetramer (two CtfA-CtfB heterodimers) in crystals
Description: X-ray crystal structure, […] Å. The series is classed as binding.

The target of series [3] is T3, T. melanesiensis CtfAB (T. mel CtfAB; WT-CtfAB) (Thermosipho melanesiensis, UniProt A6LM39+A6LM40, A6LM39:E46D). Details: gene Tmel_1136. The following applies: acetate from crystallisation buffer; pocket next to residue 46.
T3 sequence (A6LM39 entry or part of it E46D, one chain of several): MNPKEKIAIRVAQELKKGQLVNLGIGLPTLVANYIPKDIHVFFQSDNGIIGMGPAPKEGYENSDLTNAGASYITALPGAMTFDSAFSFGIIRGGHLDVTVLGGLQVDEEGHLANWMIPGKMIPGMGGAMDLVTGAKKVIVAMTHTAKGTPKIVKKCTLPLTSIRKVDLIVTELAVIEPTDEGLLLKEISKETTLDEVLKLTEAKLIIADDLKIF
Series [4] has as its target T1, T. melanesiensis CtfAB (T. mel CtfAB; WT-CtfAB). The arrangement: gene Tmel_1136. To be noted: rate-equation constant of substrate B (acetate) in the forward fit, not a separate inhibition assay; 100 mM Tris-HCl, 40 mM MgCl2, 5% glycerol, pH 7.5, 65 °C.
For series [5], the target named is T4, T. melanesiensis CtfAB (T. mel CtfAB; WT-CtfAB) (Thermosipho melanesiensis, UniProt A6LM39+A6LM40, A6LM39:E46S).
T4 construct: gene Tmel_1136
T4 sequence (A6LM39 1-214 E46S, one chain of several): as the sequence (A6LM39 entry or part of it E46D, one chain of several) above, with D46S counted along it
To be noted: acetate from crystallisation buffer; second acetate in place of the catalytic glutamate carboxylate.

Series [6] addresses T3, T. melanesiensis CtfAB (T. mel CtfAB; WT-CtfAB). Description: hydrolase activity assay. The series is classed as biochemical. Details: gene Tmel_1136; co-expressed in E. coli Rosetta 2(DE3)pLysS; N-terminal 6xHis on CtfA, untagged CtfB; subunits Mr 23-25 kDa; heterotetramer (two CtfA-CtfB heterodimers) in crystals. To be noted: CoA hydrolase instead of transferase; acetate not required.

Substrate in series [7]: CC(=O)O
Description: purified protein. The following applies: forward reaction, co-substrate acetoacetyl-CoA (0.025-0.4 mM), 100 mM Tris-HCl, 40 mM MgCl2, 5% glycerol, pH 7.5, 65 °C.

Substrate in series [8]: CC(=O)CC(=O)SCCNC(=O)CCNC(=O)[C@H](O)C(C)(C)COP(=O)(O)OP(=O)(O)OC[C@H]1O[C@@H](n2cnc3c(N)ncnc32)[C@H](O)[C@@H]1OP(=O)(O)O
Description: purified protein. The series is classed as biochemical, Thermosipho melanesiensis. The following applies: forward reaction, co-substrate acetate (18.75-375 mM), 100 mM Tris-HCl, 40 mM MgCl2, 5% glycerol, pH 7.5, 65 °C, abstract prints 135 μM.

Substrate in series [9]: CC(=O)CC(=O)O
Description: purified protein. The series is classed as biochemical, Thermosipho melanesiensis. The following applies: reverse reaction, co-substrate acetyl-CoA (0.033-0.4 mM), 100 mM Tris-HCl, 40 mM MgCl2, 5% glycerol, pH 7.5, 65 °C.

Substrate in series [10]: CC(=O)SCCNC(=O)CCNC(=O)[C@H](O)C(C)(C)COP(=O)(O)OP(=O)(O)OC[C@H]1O[C@@H](n2cnc3c(N)ncnc32)[C@H](O)[C@@H]1OP(=O)(O)O
Description: purified protein. The following applies: reverse reaction, co-substrate acetoacetate (3.75-18.75 mM), 100 mM Tris-HCl, 40 mM MgCl2, 5% glycerol, pH 7.5, 65 °C. The series is classed as biochemical, Thermosipho melanesiensis.

Series [11] concerns the molecule itself. Description: crystal structure; hanging drop, purified co-expressed CtfAB 5-6 mg/mL in 10 mM MOPS, 5% glycerol, 50 mM Na2SO4, 50 mM NaCl, 1 mM DTT, pH 7.5; reservoir 100 mM Na acetate pH 4.9-5.5, 6-10% PEG 3350; F42T/S45C co-crystal with 5-10 mM acetyl-CoA; space group P4(1)2(1)2.

T2 sequence (A6LM39 entry or part of it F42T/S45C, one chain of several): as the sequence (A6LM39 entry or part of it E46D, one chain of several) above, with F42T, S45C, D46E counted along it

For the molecule `CC(=O)SCCNC(=O)CCNC(=O)[C@H](O)C(C)(C)COP(=O)(O)OP(=O)(O)OC[C@H]1O[C@@H](n2cnc3c(N)ncnc32)[C@H](O)[C@@H]1OP(=O)(O)O` [acetyl-CoA], in series [1], the inhibitory constant (Ki) was found to be 1270 ± 276 µM. Moreover, the “X-ray crystal structure, 1.9 Å” value in series [2] (co-crystal with 5-10 mM acetyl-CoA, site in CtfB, pantetheine part partly disordered) was “A co-crystal of the mutant CtfB F42T/S45C and acetyl-CoA was grown”.

`CC(=O)O` [acetate]: the “X-ray crystal structure, 2.2 Å” value in series [3] is “Acetate molecules were identified in every CtfAB structure in the substrate-binding pocket”. For the same molecule, in series [2] (acetate from crystallisation buffer (100 mM Na acetate), two molecules near E46, acetyl-CoA also bound), the “X-ray crystal structure, 1.9 Å” value is reported as “difference density for two acetate molecules in the CtfAB F42TS45C-CoA structure”. Besides, the “Ki,B” value in [4] amounted to 24700 ± 16600 µM. The “X-ray crystal structure, 2.6 Å” value in series [5] is “a second acetate molecule binds in the space normally occupied by the catalytic glutamate”.

For `CC(=O)CC(=O)SCCNC(=O)CCNC(=O)[C@H](O)C(C)(C)COP(=O)(O)OP(=O)(O)OC[C@H]1O[C@@H](n2cnc3c(N)ncnc32)[C@H](O)[C@@H]1OP(=O)(O)O` [acetoacetyl-CoA], the hydrolase activity assay entry in [6] was “converted the transferase into a hydrolase, with activity confirmed on acetoacetyl-CoA”.

B1: T. melanesiensis CtfAB (T. mel CtfAB; WT-CtfAB) (Thermosipho melanesiensis BI429) (protein)
chain 1: MKVVDISKINELVKEGATLMIGGFLGVGTPENIIDEIIRHNISNLTVIANDTAFEDRGIGKLVKNKLCKKVIVSHIGTNPETQRQMIEGTLEVELVPQGTLAERIRAAGVGLGGILTPTGVGTVVEKDKKVIEVEGKKYLLELPIHADVALIKAKKADYLGNLVYNLTAENFNPIMALAAKTVIAEVEEIVPTGTLSPNEIKTPGIIVDYIVTGVTR
chain 2: MNPKEKIAIRVAQELKKGQLVNLGIGLPTLVANYIPKDIHVFFQSENGIIGMGPAPKEGYENSDLTNAGASYITALPGAMTFDSAFSFGIIRGGHLDVTVLGGLQVDEEGHLANWMIPGKMIPGMGGAMDLVTGAKKVIVAMTHTAKGTPKIVKKCTLPLTSIRKVDLIVTELAVIEPTDEGLLLKEISKETTLDEVLKLTEAKLIIADDLKIF
notes: co-expressed in E. coli Rosetta 2(DE3)pLysS; N-terminal 6xHis on CtfA, untagged CtfB; subunits Mr 23-25 kDa; heterotetramer (two CtfA-CtfB heterodimers) in crystals
B1: the Km in [7] was determined as 84700 ± 15600 µM; in series [8], 138 ± 28.8 µM; in series [9], 1655 ± 331 µM; in series [10], 322 ± 41 µM.

B2: Thermosipho melanesiensis CtfAB heterodimer (His6-CtfA with CtfB), wild type (complex)
chain 1: MKVVDISKINELVKEGATLMIGGFLGVGTPENIIDEIIRHNISNLTVIANDTAFEDRGIGKLVKNKLCKKVIVSHIGTNPETQRQMIEGTLEVELVPQGTLAERIRAAGVGLGGILTPTGVGTVVEKDKKVIEVEGKKYLLELPIHADVALIKAKKADYLGNLVYNLTAENFNPIMALAAKTVIAEVEEIVPTGTLSPNEIKTPGIIVDYIVTGVTR
chain 2: MNPKEKIAIRVAQELKKGQLVNLGIGLPTLVANYIPKDIHVFFQSENGIIGMGPAPKEGYENSDLTNAGASYITALPGAMTFDSAFSFGIIRGGHLDVTVLGGLQVDEEGHLANWMIPGKMIPGMGGAMDLVTGAKKVIVAMTHTAKGTPKIVKKCTLPLTSIRKVDLIVTELAVIEPTDEGLLLKEISKETTLDEVLKLTEAKLIIADDLKIF
notes: CoA transferase subunit A (CtfA) of Thermosipho melanesiensis, Tmel_1136, WP_012057350; as the chain of m1; 3-oxoacid CoA-transferase subunit B (CtfB) of Thermosipho melanesiensis, Tmel_1135, WP_012057349; as the chain of m2; Used for the self-association of the CtfAB heterodimer into a heterotetramer and higher oligomers; also called T. mel CtfAB; WT-CtfAB; not shown: His6, N-terminal, kept
In the case of B2, the “stoichiometry N” value in series [11] was 2 heterodimers in the heterotetramer.
